This is an account of results in article PMC6238005, “Sigma-2 Receptor/TMEM97 and PGRMC-1 Increase the Rate of Internalization of LDL by LDL Receptor through the Formation of a Ternary Complex” (Scientific Reports, 2018).

In experiment [1] the target is T1, σ2R (Homo sapiens, UniProt Q5BJF2).
T1 construct: cell membranes were incubated with [^3H]DTG; endogenous in cells; host or cells: HeLa control clone (non-specific CRISPR/Cas9 plasmid plus lentiCas9-Blast), membrane preparation
Particulars: cited from earlier work; for Kd: no reference given.

The subject of experiment [2] is HeLa cells. The experiment is described as follows: Radiolabeled LDL uptake assay. Type of experiment: cell-based. Particulars: control HeLa cells, ligands 1 nM - 500 nM. As to the method: Radiolabeled LDL was prepared by incubating human LDL (50 μg/mL) (LP2, Millipore) with [^3H]cholesterol (final concentration 3 μCi/mL) in serum-free MEM for 24 hours at 37 °C, filtered using a 0.2 μm filter, and used immediately. Care was taken not to vortex LDL to avoid aggregation of particles.
Cells were plated on 6-well plates (1 × 10^5 cells per well) or for 96-well plates (1 × 10^4 cells per well) in MEM with 10% FBS, 100 I.U./ml penicillin, 100 µg/ml streptomycin, 2mM L-glutamine, and 1X MEM non-essential amino acids. After 24 hours, media was removed and cells were incubated with MEM containing 10% lipoprotein-depleted serum (LPDS) (AAJ65182AMG, Fisher Scientific) for an additional 24 hours. […] Cells were washed 3 times in PBS, incubated with scintillation fluid overnight, and counts per minute (cpm) were determined using a scintillation counter MicroBeta[2] Microplate counter 2450.

Experiment [3] concerns residual DTG binding site. In words: Saturation binding on TMEM97 KO HeLa cell membranes. The conditions noted are these: for binding to TMEM97 KO HeLa cells: TMEM97 KO versus control, all three guide RNA sequences; for Kd: TMEM97 KO/Cas9 HeLa cell membranes, saturation binding, N.B. = no binding. As to the method: (§1) For the cell membrane preparation for receptor binding, the cell pellets were taken out from the freezer, rinsed with 10 mL ice-cold PBS solution, and homogenized by using Wheaton overhead stirrer (120 Vac Overhead Stirrer, Millville, NJ, USA) at the speed of 2 for 30 sec. Then the cell solution was transferred to a 50 mL conical tube and centrifuged for 20 min at 31,000 × g, 4 °C. After centrifugation, the supernatant was discarded and the pellets were resuspended in 1 mL ice-cold PBS solution and stored at −80 °C freezer.
(§2) After incubation, the bound ligands were collected with a M-24 Brandel filtration system (Brandel, Gaithersburg, MD, USA) on the glass fiber papers (Whatman grade 934-AH, GE Healthcare Bio-Sciences, Pittsburgh, PA), and counted with a MicroBeta[2] Microplate counter 2450 or Wizard2 Automatic Gamma Counter 2470. All the Kd and Bmax values were calculated from a nonlinear regression method with Prism, and the protein concentrations were determined by the method of Lowry et al.[4] with BSA as a standard.

In experiment [4] the test system is residual DTG binding site. In words: Saturation binding on TMEM97/PGRMC1 double KO HeLa cell membranes. The conditions noted are these: Double KO/Cas9 HeLa cell membranes, N.B. = no binding. The procedure: as §1, §2
Experiment [5] deals with T1, σ2R. The experiment is described as follows: Saturation binding on control (Scramble/Cas9) HeLa cell membranes. As to the method: as §1, §2
In experiment [6] the target is T1, σ2R. In words: Saturation binding on PGRMC1 KO HeLa cell membranes. Particulars: PGRMC1 KO/Cas9 HeLa cell membranes. As to the method:
as §1, §2

[7] abbreviates: σ2R, ligands previously described, read-out: Kd.
The mark [8] stands for this setting: control (Cas9) HeLa cell membranes, Supplementary Figure 2, duplicates, n=3.

Where two headings read alike, the source gives them in different places.

T1 sequence (Q5BJF2 whole entry): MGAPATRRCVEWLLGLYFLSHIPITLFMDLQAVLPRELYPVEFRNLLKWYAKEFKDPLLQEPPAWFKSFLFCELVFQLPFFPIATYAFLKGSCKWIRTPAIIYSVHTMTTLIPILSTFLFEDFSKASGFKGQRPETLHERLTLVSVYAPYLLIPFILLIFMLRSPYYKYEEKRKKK

As for `Cc1ccc2c(c1)[C@H]1CN(C)CC[C@H]1N2C(=O)CSc1nnnn1-c1ccc(Cl)cc1` [AG-205], in experiment [1] (against σ2R, read-out: Kd against σ2R), the Kd (commonly the constant that tells how readily two partners part at equilibrium) was roughly 1000 nM. Moreover, the Ki (as a rule, the equilibrium dissociation constant of an inhibitor or competing ligand from its target) in experiment [1] (displacing DTG, no unit and reference not given) was roughly 1260 nM.
As for `COc1cc2c(cc1OC)CN(CCCCNC(=O)c1cc(C)ccc1OC)CC2` [RHM-1], the Kd in experiment [1] (setting [7]) is roughly 0.66 nM.
Turning to `COc1cc2c(cc1OC)CN(CCCCNC(=O)c1cc(I)cc(OC)c1OC)CC2` [RHM-4, N-(4-(6,7-dimethoxy-3,4-dihydroisoquinolin-2(1H)-yl)butyl)-2,3-dimethoxy-5-iodo-benzamide], the “effect on uptake of LDL labeled with [3H]cholesterol” value in experiment [2] is on record as “blocking the uptake of LDL”. Also, in experiment [1] (setting [7]), the Kd is roughly 0.2 nM.
On to `COc1ccc(C)cc1NC(=O)OC1CC2CCCC(C1)N2CCCCCCCCCCN` (stereo not drawn) [SW43], for which the Kd in experiment [1] (setting [7]) was roughly 12 nM.
In the case of `Cc1ccccc1N=C(N)Nc1ccccc1C` [[^3H]DTG], in experiment [3], the “binding to TMEM97 KO HeLa cells” value is “large, but incomplete, reduction”. Further, the Kd in experiment [3] (read-out: Kd) worked out at 302 ± 80.2 nM; in experiment [4] (read-out: Kd), 403 ± 110 nM.
On to `COc1cc2c(cc1OC)CN(CCCCNC(=O)c1cc(I)cc(OC)c1OC)CC2` [[^125I]RHM-4, [^125I]N-(4-(6,7-dimethoxy-3,4-dihydroisoquinolin-2(1 H)-yl)butyl)-2,3-dimethoxy-5-iodo-benzamide], for which the Kd came to 0.88 ± 0.04 nM in experiment [5] (Scramble/Cas9 control HeLa cell membranes, saturation binding, 1 μM (+)-pentazocine to mask σ1R for [3H]DTG); 1.1 ± 0.2 nM in experiment [5] (setting [8]); 2.66 ± 0.12 nM in experiment [6] (saturation binding).
With `COc1cc2c(cc1OC)CN(CCCCNC(=O)c1cc([125I])cc(OC)c1OC)CC2` [[^125I]RHM-4, [^125I]N-(4-(6,7-dimethoxy-3,4-dihydroisoquinolin-2(1 H)-yl)butyl)-2,3-dimethoxy-5-iodo-benzamide], the Bmax in experiment [5] (Scramble/Cas9 control HeLa cell membranes) was 2545 ± 37 fmol/mg; in experiment [5] (setting [8]), 2234.0 fmol/mg; in experiment [6], 2475 ± 51 fmol/mg. Moreover, the “binding to TMEM97 KO HeLa cells” value in experiment [3] is reported as “complete reduction in binding”. Moreover, the dissociation constant (Kd) result in experiment [3] and in experiment [4] was “N.B” each time.
